Measured values from patent publication US7592360B2, “3-fluoro-piperidines as NMDA/NR2B antagonists” (Merck & Co., Inc., priority 2003, dated 2009).
Where a name gives a salt, the structure may show the parent alone.

Compound | melting point [°C]
Cc1ccc(COC(=O)N2CC[C@@H](CNc3nncs3)[C@H](F)C2)cc1 [Example 7, (+)-trans-4-methylbenzyl 3-fluoro-4-[(1,3,4-thiadiazol-2-ylamino)methyl]piperidine-1-carboxylate] | 93 to 95
O=C([C@@H]1C[C@H]1c1ccccc1)N1CC[C@H](CNc2ncccn2)[C@H](F)C1 (as salt: hydrochloride) [Example 5, (3S,4R)-N-[(3-cis-fluoro-1-{[(1R,2R)-2-phenylcyclopropyl]carbonyl}piperidin-4-yl)methyl]pyrimidin-2-amine] | 127 to 128
Cc1ccc(COC(=O)N2CC[C@@H](CNc3nncs3)[C@@H](F)C2)cc1 (stereo in doubt) (as salt: hydrochloride) [Example 6, (−)-cis-4-methylbenzyl 3-fluoro-4-[(1,3,4-thiadiazol-2-ylamino)methyl]piperidine-1-carboxylate] | 115 to 117
